Values after ≈ are worked out from the molar mass of the structure shown. Active and inactive are the calls of the source. The calls are words filed in the database; no cut-off is given here.
Tests used:
Escherichia coli [1] = assay: Antimicrobial activity against Escherichia coli KAM32 pHPA containing mutated GyrA gene by agar dilution method; format: functional
Escherichia coli [2] = assay: Antimicrobial activity against multidrug-resistant Escherichia coli C316 pHPA containing mutated GyrA gene by agar dilution method; format: functional
Escherichia coli [3] = assay: Antimicrobial activity against Escherichia coli KAM32 pSTVdeltaqepA containing disrupted qepA gene by agar dilution method; format: functional
[4] = molecular target: T1, Plasmid efflux fluoroquinolone (Escherichia coli) (UniProt A5H8A5); assay: Inhibition of qepA-mediated drug efflux in Escherichia coli KAM32 assessed as increase in accumulation of Norfloxacin by fluorescence spectroscopy
T1 sequence (whole entry): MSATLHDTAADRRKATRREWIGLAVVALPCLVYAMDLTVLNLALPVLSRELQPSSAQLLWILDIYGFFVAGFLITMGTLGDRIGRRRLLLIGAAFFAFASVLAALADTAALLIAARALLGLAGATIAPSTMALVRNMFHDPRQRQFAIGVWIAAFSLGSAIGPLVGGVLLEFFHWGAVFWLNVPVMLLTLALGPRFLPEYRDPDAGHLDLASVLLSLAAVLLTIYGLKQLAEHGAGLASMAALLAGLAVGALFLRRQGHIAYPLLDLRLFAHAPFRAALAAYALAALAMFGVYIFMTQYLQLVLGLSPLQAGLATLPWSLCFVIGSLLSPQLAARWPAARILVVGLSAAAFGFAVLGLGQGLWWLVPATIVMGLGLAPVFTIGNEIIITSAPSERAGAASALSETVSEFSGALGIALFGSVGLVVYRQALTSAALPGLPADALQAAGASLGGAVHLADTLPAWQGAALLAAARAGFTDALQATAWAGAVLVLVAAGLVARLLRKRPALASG

Escherichia coli [5] = assay: Antimicrobial activity against Escherichia coli KAM32 pSTV28 containing chloramphenicol-resistant vector by agar dilution method; format: functional
Escherichia coli [6] = assay: Antimicrobial activity against Escherichia coli KAM32 expressing deltaacrB ydhE hsd gene by agar dilution method; format: functional
Escherichia coli [7] = assay: Ratio of MIC for Escherichia coli KAM32 pSTVqepA mutant to MIC for Escherichia coli KAM32 pSTV28 mutant; format: functional
Escherichia coli [8] = assay: Antimicrobial activity against Escherichia coli KAM32 pSTVqepA containing qepA gene ligated to pSTV28 plasmid by agar dilution method; format: functional

SMILES | MIC (Escherichia coli [1]) [µg/mL] | MIC (Escherichia coli [2]) [µg/mL] | MIC (Escherichia coli [3]) [µg/mL] | Activity [4] | MIC (Escherichia coli [5]) [µg/mL] | MIC (Escherichia coli [6]) [µg/mL] | Ratio (Escherichia coli [7]) | MIC (Escherichia coli [8]) [µg/mL]
CC1(C)S[C@@H]2[C@H](NC(=O)[C@H](N)c3ccccc3)C(=O)N2[C@H]1C(=O)O [AMPICILLIN] | > 128 | > 128 |  |  |  |  |  | 
N#CC(C#N)=NNc1cccc(Cl)c1 [CARBONYL CYANIDE M-CHLOROPHENYLHYDRAZONE] | 16 (≈ 78.2 µM) | 16 (≈ 78.2 µM) | 16 (≈ 78.2 µM) | Active | 16 (≈ 78.2 µM) | 16 (≈ 78.2 µM) | 1 | 16 (≈ 78.2 µM)
O=C(O)c1cn(C2CC2)c2cc(N3CCNCC3)c(F)cc2c1=O [CIPROFLOXACIN] | 0.064 (≈ 0.193 µM) | > 128 |  |  |  |  |  | 
C[C@H](CCC(=O)O)[C@H]1CC[C@H]2[C@@H]3CC[C@@H]4C[C@H](O)CC[C@]4(C)[C@H]3C[C@H](O)[C@]12C [DEOXYCHOLIC ACID] | 512 (≈ 1300 µM) | > 1020 | 512 (≈ 1300 µM) |  | 512 (≈ 1300 µM) | 1020 (≈ 2610 µM) | 1 | 512 (≈ 1300 µM)
CCN1CCN(c2cc3c(cc2F)c(=O)c(C(=O)O)cn3C2CC2)CC1 [ENROFLOXACIN] | 0.25 (≈ 0.696 µM) | > 128 | 0.008 (≈ 0.0223 µM) |  | 0.008 (≈ 0.0223 µM) | 0.008 (≈ 0.0223 µM) | 32 | 0.25 (≈ 0.696 µM)
CC[C@H]1OC(=O)[C@H](C)[C@@H](O[C@H]2C[C@@](C)(OC)[C@@H](O)[C@H](C)O2)[C@H](C)[C@@H](O[C@@H]2O[C@H](C)C[C@H](N(C)C)[C@H]2O)[C@](C)(O)C[C@@H](C)C(=O)[C@H](C)[C@@H](O)[C@]1(C)O [ERYTHROMYCIN] | > 128 | > 128 | 1 (≈ 1.36 µM) |  | 1 (≈ 1.36 µM) | 2 (≈ 2.73 µM) | 2 | 2 (≈ 2.73 µM)
C[n+]1c2cc(N)ccc2cc2ccc(N)cc21.[Cl-] [EUFLAVINE] | 4 | > 128 | 2 |  | 2 | 2 | 2 | 4
COc1c(N2CCNC(C)C2)c(F)cc2c(=O)c(C(=O)O)cn(C3CC3)c12 (stereo not drawn) [GATIFLOXACIN] | 0.016 (≈ 0.0426 µM) | 32 (≈ 85.2 µM) | 0.004 (≈ 0.0107 µM) |  | 0.002 (≈ 0.00533 µM) | 0.004 (≈ 0.0107 µM) | 8 | 0.016 (≈ 0.0426 µM)
CN(C)c1ccc(C(=C2C=CC(=[N+](C)C)C=C2)c2ccc(N(C)C)cc2)cc1.[Cl-] [GENTIAN VIOLET] | 2 | 16 | 2 |  | 2 | 2 | 1 | 2
CC[n+]1c(-c2ccccc2)c2cc(N)ccc2c2ccc(N)cc21.[Br-] [HOMIDIUM BROMIDE] | 8 | > 128 | 4 |  | 4 | 4 | 2 | 8
NC[C@H]1O[C@H](O[C@H]2[C@H](O)[C@@H](O[C@H]3O[C@H](CO)[C@@H](O)[C@H](N)[C@H]3O)[C@H](N)C[C@@H]2N)[C@H](O)[C@@H](O)[C@@H]1O [KANAMYCIN] | > 128 | > 128 | 128 (≈ 264 µM) |  | 1 (≈ 2.06 µM) | 1 (≈ 2.06 µM) | 1 | 1 (≈ 2.06 µM)

Source: ChEMBL document CHEMBL1143404, “New plasmid-mediated fluoroquinolone efflux pump, QepA, found in an Escherichia coli clinical isolate” (2007)
